Measurements taken from PubChem BioAssay (NCI).
“And” between values parts separate entries of the source, which are not always exact repeats. Equal values may be shown once.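 Interpolation was linear, between the two tested concentrations surrounding the appropriate level; five concentrations were tested over 48 hours in 96-well plates. GI50: concentration for 50% inhibition of growth. TGI: concentration producing complete growth inhibition.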 Where a SMILES comes first, the peptide text is derived from it. [ ]: non-standard residue; d: D form. Phe(F5) = N[CH](Cc1c(F)c(F)c(F)c(F)c1F)C(=O)O

Tests used:
Experiment in all cases: NCI tumour cell line growth inhibition, 48 h
ACHN renal = tested on: ACHN renal
HT29 colon = tested on: HT29 colon
NCI/ADR-RES ovarian = tested on: NCI/ADR-RES ovarian
M14 melanoma = tested on: M14 melanoma
SR leukemia = tested on: SR leukemia
HOP-92 NSCLC = tested on: HOP-92 NSCLC
OVCAR-3 ovarian = tested on: OVCAR-3 ovarian
T-47D breast = tested on: T-47D breast
NCI-H522 lung = tested on: NCI-H522 lung
COLO 205 colon = tested on: COLO 205 colon

Structure (SMILES) | GI50 (ACHN renal) | TGI (ACHN renal) | GI50 (HT29 colon) | TGI (HT29 colon) | GI50 (NCI/ADR-RES ovarian) | TGI (NCI/ADR-RES ovarian) | GI50 (M14 melanoma) | TGI (M14 melanoma) | GI50 (SR leukemia) | TGI (SR leukemia) | GI50 (HOP-92 NSCLC) | TGI (HOP-92 NSCLC) | GI50 (OVCAR-3 ovarian) | TGI (OVCAR-3 ovarian) | GI50 (T-47D breast) | GI50 (NCI-H522 lung) | TGI (NCI-H522 lung) | GI50 (COLO 205 colon) | TGI (COLO 205 colon) | TGI (T-47D breast)
CC[C@H](Nc1nc(N)nc(C)c1C#N)c1nc2cccc(CN(C)c3ncc(C(=O)NO)cn3)c2c(=O)n1-c1ccccc1 | 1.26 µM | 3.79 µM | 0.8 µM | > 17.6 µM | 11.4 µM | > 50 µM | 1.08 µM | 7.01 µM | 0.396 µM | > 50 µM | 0.204 µM | 1.52 µM | 0.761 µM | 2.28 µM | 0.242 µM | 0.174 µM | 4.27 µM |  |  | 
CCN(CC)c1ccc(/C=C/c2cc(C)c3ccccc3n2)cc1 | 6.12 µM | > 100 µM | 2.41 µM | 7.39 µM | 1.93 µM | 16.3 µM | 3.42 µM | 13.6 µM | 1.53 µM | 12.1 µM | 3.63 µM | 22.9 µM | 1.82 µM | 4.78 µM | 4.46 µM | 1.31 µM | 3.91 µM | 2.14 µM | 5.23 µM | > 100 µM
CC(C)(O)c1ccc(N2CCN(c3nnc(Cc4ccccc4)c4ccccc34)CC2)nc1 | 11.3 µM | 47.7 µM | 12 µM | 37.7 µM | 4.09 µM | 46.8 µM | 8.86 µM | 23 µM | 18.6 µM | > 100 µM | 7.74 µM | 38.7 µM | 10.4 µM | 47.5 µM | 2.71 µM | 6.32 µM | 20.7 µM | 5.41 µM | 16 µM | 14.6 µM
O=C1c2ccccc2C(=O)N1CC1(C(=O)O)NCCS1(=O)=O (stereo unspecified) |  | > 100 µM |  | > 100 µM |  | > 100 µM |  | > 100 µM |  | > 100 µM |  | > 100 µM |  | > 100 µM |  |  | > 100 µM |  | > 100 µM | > 100 µM
CCN=C1C=CC(=C(c2ccc(N(C)C)cc2)c2ccc(N(C)C)cc2)c2ccccc21 | 0.241 µM | 1.1 µM | 0.0326 µM | 0.207 µM | 0.636 µM | 3.94 µM | 0.107 µM | 0.372 µM | 0.0846 µM | 0.572 µM | 0.0414 µM | 0.352 µM | 0.0301 µM | 0.121 µM | 0.0567 µM |  |  | 0.0508 µM | 0.183 µM | 1.52 µM
COC(=O)C(CC(C)C)NC(=O)C(Cc1cnc[nH]1)NC(=O)CNC(=O)C(NC(=O)C(C)NC(=O)C(Cc1c[nH]c2ccccc12)NC(=O)C(CCC(=O)O)NC(=O)C(N)Cc1c(F)c(F)c(F)c(F)c1F)C(C)C (stereo unspecified) (H-[Phe(F5)]EWAVGHL-OMe; configuration not given here) | > 100 µM | > 100 µM | > 100 µM | > 100 µM |  | > 12.5 µM | > 100 µM | > 100 µM | > 100 µM | > 100 µM |  |  | > 100 µM | > 100 µM |  |  | > 12.5 µM | > 100 µM | > 100 µM | > 12.5 µM
O=C1C(Cl)=C(N/N=c2/[nH][nH]/c(=N/NC3=C(Cl)C(=O)c4ccccc4C3=O)c3ccccc23)C(=O)c2ccccc21 | 12.7 µM | 28.2 µM | 24.9 µM | 53.6 µM | 21.4 µM | 73.2 µM | 16.9 µM | 34.8 µM | 9.97 µM | 59.1 µM |  |  | 15.6 µM | 36.4 µM | 6.71 µM | 2.78 µM | 10.9 µM | 16.1 µM | 32.9 µM | 36.8 µM
CC(=O)OC1c2ccccc2CC2(OC(C)=O)c3ccccc3C12 (stereo unspecified) |  | > 100 µM |  | > 100 µM |  | > 100 µM |  | > 100 µM |  | > 100 µM |  | > 100 µM |  | > 100 µM |  |  |  |  | > 100 µM | > 100 µM
CN(C)CCCNC(=O)c1cc(NC(=O)CCNS(=O)(=O)c2ccc3c(c2)C(=O)c2ccccc2C3=O)cn1C |  |  | > 100 µM | > 100 µM | > 100 µM | > 100 µM | > 100 µM | > 100 µM | > 100 µM | > 100 µM | 88.9 µM | > 100 µM | > 100 µM | > 100 µM | > 100 µM | > 100 µM | > 100 µM | > 100 µM | > 100 µM | > 100 µM
COc1ccc(Cn2nc(-c3cc(OC)c(OC)c(OC)c3)c3c2CCc2cnoc2-3)cc1OC | 6.12 µM | > 100 µM | 3.8 µM | > 100 µM | 3.02 µM | 21.5 µM | 4.08 µM | 47.4 µM | 2.67 µM | > 100 µM |  |  | 3.29 µM | 9.61 µM | 4.16 µM | 3.17 µM | > 100 µM | 4.68 µM | 23.4 µM | 39.9 µM
CC[C@](C)(O)C(=O)O[C@H]1C(=O)O[C@@H]2C[C@H]3C(C)=CC(=O)[C@@H](O)[C@]3(C)[C@H]3[C@@]4(O)OC[C@]32[C@@H]1[C@@H](C)[C@H]4O |  | 1.69 µM | 0.321 µM and 0.122 µM | 10.3 µM and 2.27 µM | 0.036 µM |  |  | 0.396 µM |  | 2.55 µM |  |  | 0.387 µM | 0.502 µM and 1.62 µM |  | 0.0296 µM | 0.148 µM | 1.92 µM | 7.24 µM and 3.35 µM | 3.78 µM
